Toxic doses and inconclusive results are not listed. How the source made its calls: active means survival T/C of 150% or more; inactive means T/C below 125% in these data. Numbered stars: 1 amine (or outer) side, 2 acyl side, 3 side chain; on linkers, the order of the positions; unused ones are H or OH. Square brackets hold non-standard residues; d marks the D form. Peptide text beside a SMILES is read from it. * marks the point of attachment. X2 = CCC(=O)CC1CC(C)CC(C(=O)[*:2])N1[*:1]; X1 = CCCCCCCCC(C)C(=O)*; Aib = CC(C)(N)C(=O)O; X3 = CC(CN(C)CCO)N*
Tested on: BDF1 mice, Lewis lung carcinoma iv, survival T/C
Test: NCI In Vivo Anticancer Drug Screen. Data for tumor model Lewis Lung Carcinoma (intravenous) in B6D2F1 (BDF1) mice
Conditions: endpoint: median survival time, schedule: Q01DX009 (ip), higher = longer survival
Description: The antitumor activity of compounds was measured in mice bearing transplantable tumors. Survival or tumor size were measured and the results are expressed as the measurement made in the treated group (T) divided by the measurement made in the vehicle treated control group (C). The tumor model used in this assay is Lewis Lung Carcinoma (intravenous) in B6D2F1 (BDF1) mice

[1] = dose: 25.0 mg/kg/injection, vehicle: Klucel (hydroxypropylcellulose) (HPC)

Measured: T/C

COC1/C=C/C=C(/C)Cc2cc(O)c(Cl)c(c2)N(C)C(=O)CC(OC(=O)C(C)C)C2(C)OC2C(C)C2CC1(O)NC(=O)O2 (stereo unspecified)
inactive: dose: 0.12 mg/kg/injection, vehicle: saline + alcohol 106 % of control | dose: 0.25 mg/kg/injection, vehicle: saline + alcohol 110 % of control | dose: 0.5 mg/kg/injection, vehicle: saline + alcohol 105 % of control | dose: 1.0 mg/kg/injection, vehicle: saline + alcohol 105 % of control

c1cn[nH]c1
inactive: dose: 25.0 mg/kg/injection, vehicle: saline 121 % of control | dose: 50.0 mg/kg/injection, vehicle: saline 110 % of control

C=C1C(=O)OCC1(C(=O)OCC)C(=O)OCC
inactive: dose: 4.0 mg/kg/injection, vehicle: saline with Tween-80 114 % of control | dose: 8.0 mg/kg/injection, vehicle: saline with Tween-80 120 % of control

C=C(Cl)C(=NC(C)(C)C)Nc1ccccc1C
inactive: dose: 3.12 mg/kg/injection, vehicle: Klucel (hydroxypropylcellulose) (HPC) 100 % of control | dose: 6.25 mg/kg/injection, vehicle: Klucel (hydroxypropylcellulose) (HPC) 110 % of control | dose: 12.5 mg/kg/injection, vehicle: Klucel (hydroxypropylcellulose) (HPC) 107 % of control | [1] 108 % of control

O=C(CCN1CC1)OCCOC(=O)CCN1CC1
inactive: dose: 1.5 mg/kg/injection, vehicle: saline 111 % of control | dose: 3.0 mg/kg/injection, vehicle: saline 107 % of control | dose: 6.0 mg/kg/injection, vehicle: saline 99 % of control | dose: 24.0 mg/kg/injection, vehicle: saline 107 % of control

O=C(NO)c1cc(O)c(O)c(O)c1
inactive: dose: 25.0 mg/kg/injection, vehicle: water 100 % of control | dose: 50.0 mg/kg/injection, vehicle: water 100 % of control | dose: 100.0 mg/kg/injection, vehicle: water 97 % of control | dose: 200.0 mg/kg/injection, vehicle: water 97 % of control

CCc1nc(N)nc(N)c1-c1ccc(Cl)c(Cl)c1.[Cl][Pd][Cl]
inactive: dose: 12.5 mg/kg/injection, vehicle: saline 114 % of control

CCCCCCCCC(C)C(=O)N1CCCC1C(=O)N1C(CC(=O)CC)CC(C)CC1C(=O)NC(C)C(=O)NC(C)(C)C(=O)NC(C)(C)C(=O)NC(C(=O)NC(C)C(=O)NC(C)(C)C(=O)NC(C)(C)C(=O)NC(C)CN(C)CCO)C(C)CC (stereo unspecified) (X1-P[X2]A[Aib][Aib]IA[Aib][Aib]-X3; configuration not given here)
inactive: dose: 0.31 mg/kg/injection, vehicle: Klucel (hydroxypropylcellulose) (HPC) 105 % of control | dose: 0.62 mg/kg/injection, vehicle: Klucel (hydroxypropylcellulose) (HPC) 97 % of control | dose: 1.25 mg/kg/injection, vehicle: Klucel (hydroxypropylcellulose) (HPC) 99 % of control | dose: 2.5 mg/kg/injection, vehicle: Klucel (hydroxypropylcellulose) (HPC) 104 % of control | dose: 5.0 mg/kg/injection, vehicle: Klucel (hydroxypropylcellulose) (HPC) 104 % of control

COc1ccc(CCNC(C)=O)cc1OC
inactive: [1] 90 % of control | dose: 50.0 mg/kg/injection, vehicle: Klucel (hydroxypropylcellulose) (HPC) 94 % of control | dose: 100.0 mg/kg/injection, vehicle: Klucel (hydroxypropylcellulose) (HPC) 103 % of control | dose: 200.0 mg/kg/injection, vehicle: Klucel (hydroxypropylcellulose) (HPC) 105 % of control

O=c1c(O)c(-c2cc(O)c(O)c(O)c2)oc2cc(O)cc(O)c12
inactive: dose: 6.25 mg/kg/injection, vehicle: other 88 % of control | dose: 12.5 mg/kg/injection, vehicle: other 94 % of control | dose: 25.0 mg/kg/injection, vehicle: other 93 % of control | dose: 50.0 mg/kg/injection, vehicle: other 93 % of control | dose: 100.0 mg/kg/injection, vehicle: other 115 % of control | dose: 200.0 mg/kg/injection, vehicle: other 97 % of control

From PubChem BioAssay AID274 (DTP/NCI, 2004)
